Reference: patent US5336496A, “Inhibitor for delta 5-desaturase” (Suntory Limited, priority 1989, dated 1994)
Read-outs that look alike come from different tables or passages of the source.

Tests used:
Δ^5 -desaturase = target: T1, Δ^5 -desaturase (Rattus norvegicus, UniProt Q920R3); test: Inhibition of Δ5-desaturase in rat liver microsome (conversion of [2-14C]-dihomo-γ-linolenic acid to arachidonic acid); assay type: biochemical, rat (Wister male); details: for inhibition at 30 µg/mL: read-out: Inhibition on Δ^5 -desaturase (%); for specific inhibition of Δ^5 -desaturase / inhibition of Δ^5 -desaturation reaction from dihomo-γ-linolenic acid to arachidonic acid: in words; for specific inhibition of Δ^5 -desaturase: figure legends, compared with Δ^6 -desaturase (and Δ^9 -desaturase for sesamin); for inhibition of Δ^5 -desaturation reaction from dihomo-γ-linolenic acid to arachidonic acid: 0.001 to 0.5 mg/ml, FIGS. 1, 2 and 3, rat liver microsome
T1 construct: from tissue; host or cells: liver microsomes of a male Wistar rat
T1 sequence (Q920R3 whole entry, stated change not applied): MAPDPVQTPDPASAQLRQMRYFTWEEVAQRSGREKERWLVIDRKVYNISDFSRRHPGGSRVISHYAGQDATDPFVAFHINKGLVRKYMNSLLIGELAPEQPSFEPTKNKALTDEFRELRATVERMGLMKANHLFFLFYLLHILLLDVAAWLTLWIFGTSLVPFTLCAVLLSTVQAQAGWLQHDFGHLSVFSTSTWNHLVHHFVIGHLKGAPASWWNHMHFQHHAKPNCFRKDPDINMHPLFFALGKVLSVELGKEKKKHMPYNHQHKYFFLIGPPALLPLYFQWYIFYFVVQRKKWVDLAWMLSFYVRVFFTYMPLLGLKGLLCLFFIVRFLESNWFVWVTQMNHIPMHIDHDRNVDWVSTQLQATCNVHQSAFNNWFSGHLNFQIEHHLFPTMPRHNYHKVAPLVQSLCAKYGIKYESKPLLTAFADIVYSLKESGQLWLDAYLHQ
Description: As a homogenization solution, a 50 mM phosphate buffer (pH 7.4) containing 0.15M KCl, 5 mM MgCl2.6H2 O, 1 mM EDTA, 0.25M saccharose and 1.5 mM glutathione was used. The liver of a Wister male rat was perfused with physiological saline and removed, and to the removed liver was added 4-fold by weight of the homogenization solution, and the whole was homogenized. The homogenate was centrifuged at 10,000×g for 20 minutes to obtain a supernatant, which was centrifuged at 100,000×g for one hour to obtain a pellet. The pellet was suspended in the homogenization solution to obtain a microsome solution containing 12.24 mg/ml protein. The above-mentioned procedures were carried out at 4° C.
To assay the Δ^5 -desaturase activity 100 μl of the rat liver microsome solution was added to 1 ml of 0.1M phosphate buffer (PH7.4) containing 0.25M saccharose, 0.15M KCl, 1.5 mM glutathione, 45 mM NaF, 0.5 mM nicotinamide, 5 mM MgCl2.6H20 O, 7.5 mM ATP, 0.4 mM CoA.Na2, 1.5 mM NADH, and 100 μM dihomo-γ-linolenic acid containing 0.1 μCi (1.7 nmoles) [2-^14 C]-dihomo-γ-linolenic acid per 1 ml, the mixture was incubated at 37° C for one hour, followed by an addition of 5 ml of ethanol to terminate the reaction. To the reaction mixture was added 1 ml of 4N KOH, and mixture was incubated at 60° C for 30 minutes for saponification. After the reaction, 3 ml of water, 100 μg of dihomo-γ-linolenic acid and 1 ml of 6N HCl were added thereon, and fatty acids in the reaction mixture were extracted twice with 5 ml of hexane. The extract was evaporated in a centrifuge evaporator and 1 ml of ethyl ether/methanol (9:1) was added to the residue, and the fatty acids were methylated with diazomethane. After allowing to stand at a room temperature for 30 minutes, the reaction mixture was evaporated in a centrifuge evaporator to remove the solvent, whereby methyl esters of the resulting fatty acids were obtained. The esters were separated on a 10% AgNO3 silica gel plate using petroleum ether/ethyl ether (1:1) as a developing solvent. Silica gel portions corresponding to the substrate dihomo-γ-linolenic acid and the product arachidonic acid respectively were peeled off, and to 5 ml of toluene-based scintillation fluid solution was added to the silica gel to measure the radioactivity by a scintillation counter. The radioactivity of the generated arachidonic acid was determined by subtracting a radioactivity at the onset of the reaction from a radioactivity after the reaction.
The enzyme inhibitory activities of sesamin, episesamin and sesamomolin were measured according to the above-mentioned procedure, except that the reaction mixture contained 0.001 to 0.5 mg/ml sesamin, episesamin or sesamolin. The radioactivity was measured as described above, and the percent inhibition was calculated.

Δ^6 -desaturase = target: T2, Δ^6 -desaturase (Rattus norvegicus, UniProt Q9Z122); test: Inhibition of Δ6-desaturase in rat liver microsome ([1-14C]-linoleic acid substrate); assay type: biochemical, rat (Wister male); details: read-out: Inhibition on Δ^6 - (%)
T2 construct: The pellet was suspended in the homogenization solution to obtain a microsome solution; from tissue; host or cells: liver microsomes of a male Wistar rat
T2 sequence (Q9Z122 whole entry, stated change not applied): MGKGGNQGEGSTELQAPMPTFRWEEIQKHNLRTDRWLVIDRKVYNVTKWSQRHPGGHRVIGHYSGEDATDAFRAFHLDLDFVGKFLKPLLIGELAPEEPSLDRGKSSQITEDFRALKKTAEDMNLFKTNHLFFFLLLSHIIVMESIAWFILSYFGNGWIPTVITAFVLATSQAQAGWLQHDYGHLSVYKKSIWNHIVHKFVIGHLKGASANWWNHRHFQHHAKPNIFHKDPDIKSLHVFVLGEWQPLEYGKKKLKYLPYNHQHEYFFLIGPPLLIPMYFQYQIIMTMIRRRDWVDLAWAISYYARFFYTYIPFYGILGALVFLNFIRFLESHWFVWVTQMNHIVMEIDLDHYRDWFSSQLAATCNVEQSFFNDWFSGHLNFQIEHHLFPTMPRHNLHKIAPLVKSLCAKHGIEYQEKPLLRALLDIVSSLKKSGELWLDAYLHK

SMILES	inhibition at 30 µg/mL (Δ^5 -desaturase)	inhibition at 30 µg/mL (Δ^6 -desaturase)	specific inhibition of Δ^5 -desaturase (Δ^5 -desaturase)	inhibition of Δ^5 -desaturation reaction from dihomo-γ-linolenic acid to arachidonic acid (Δ^5 -desaturase)	inhibition at 30 µg/mL (Δ^6 -desaturase; 0.03 mg/ml, rat liver microsome)
CCCCOCCOCCOCc1cc2c(cc1CCC)OCO2 [Piperonyl butoxide]	32.5%	0%			
c1cc2c(cc1O[C@H]1OC[C@H]3[C@@H]1CO[C@@H]3c1ccc3c(c1)OCO3)OCO2 [Sesamolin]			specifically inhibits	inhibited	
COc1cc(/C=C/C(=O)CC(=O)/C=C/c2ccc(O)c(OC)c2)ccc1O [Curcumin]					36.1%
c1cc2c(cc1[C@H]1OC[C@H]3[C@@H]1CO[C@@H]3c1ccc3c(c1)OCO3)OCO2 [Sesamin]	39.2%	0%	specifically inhibits	inhibited	
